The source made the active and inactive calls. No cut-off for these calls is given here.
Columns and labels:
[1] = target: T1, [Pyruvate dehydrogenase (acetyl-transferring)] kinase isozyme 1, mitochondrial (Homo sapiens, UniProt Q15118); assay: Inhibition of PDK1 (unknown origin) at 10 uM using PDH E1 as substrate measured after 30 mins by kinase-glo assay relative to control
[2] = target: T1, [Pyruvate dehydrogenase (acetyl-transferring)] kinase isozyme 1, mitochondrial; assay: Inhibition of PDK1 (unknown origin) using PDH E1 as substrate measured after 30 mins by kinase-glo assay
[3] = target: T1, [Pyruvate dehydrogenase (acetyl-transferring)] kinase isozyme 1, mitochondrial; assay: Potency index, ratio of DCA EC50 to test compound EC50 for inhibition of PDK1 (unknown origin)
[4] = target: T1, [Pyruvate dehydrogenase (acetyl-transferring)] kinase isozyme 1, mitochondrial; assay: Binding affinity to SUMO-fused/His-tagged PDK1 (unknown origin) expressed in Escherichia coli by isothermal calorimetric titration analysis
[5] = target: [Pyruvate dehydrogenase (acetyl-transferring)] kinase isozyme 2, mitochondrial (Homo sapiens, UniProt Q15119); assay: Binding affinity to SUMO-fused/His-tagged PDK2 (unknown origin) expressed in Escherichia coli by isothermal calorimetric titration analysis
[6] = target: [Pyruvate dehydrogenase (acetyl-transferring)] kinase isozyme 3, mitochondrial (Homo sapiens, UniProt Q15120); assay: Binding affinity to SUMO-fused/His-tagged PDK3 (unknown origin) expressed in Escherichia coli by isothermal calorimetric titration analysis
[7] = target: [Pyruvate dehydrogenase (acetyl-transferring)] kinase isozyme 4, mitochondrial (Homo sapiens, UniProt Q16654); assay: Binding affinity to SUMO-fused/His-tagged PDK4 (unknown origin) expressed in Escherichia coli by isothermal calorimetric titration analysis
[8] = target: T2, Pyruvate dehydrogenase kinase (Homo sapiens) (UniProt Q15119+Q15120+Q16654+Q15118); assay: Inhibition of PDK in human NCI-H1975 cells assessed as reduction in phosphorylated S293 PDC E1 level at 10 uM by ELISA; assay type: cell-based
[9] = target: T2, Pyruvate dehydrogenase kinase (Homo sapiens); assay: Inhibition of PDK in human NCI-H1975 cells assessed as reduction in phosphorylated S293 PDC E1 level by ELISA; assay type: cell-based
[10] = target: T2, Pyruvate dehydrogenase kinase (Homo sapiens); assay: Inhibition of PDK in human NCI-H1975 cells assessed as reduction in phosphorylated S293 PDC E1 level by Western blot analysis; assay type: cell-based
NCI-H1975 [11] = assay: Antiproliferative activity against human NCI-H1975 cells assessed as reduction in cell viability at 10 uM after 72 hrs by MTT assay; assay type: functional, cell-based
MRC5 = assay: Cytotoxicity against human MRC5 cells assessed as reduction in cell viability up to 40 uM after 72 hrs by MTT assay; assay type: cell-based; details: mrc5, 72 h
NCI-H1650 = assay: Antiproliferative activity against human NCI-H1650 cells assessed as reduction in cell viability after 72 hrs by MTT assay; assay type: functional, cell-based; details: NCI-H1650, 72 h
A549 = assay: cells; details: Homo sapiens, A549, 72 h
Description: Antiproliferative activity against human A549 cells assessed as reduction in cell viability after 72 hrs by MTT assay

NCI-H1975 [12] = assay: Antiproliferative activity against human NCI-H1975 cells assessed as reduction in cell viability after 72 hrs by MTT assay; assay type: functional, cell-based; details: NCI-H1975, 72 h
[13] = target: T2, Pyruvate dehydrogenase kinase (Homo sapiens); assay: Inhibition of PDK in human NCI-H1975 cells assessed as switch of pyruvate metabolism from lactate production to oxidative phosphorylation by measuring increase in ROS production at 1 to 10 uM measured after 4 hrs by DCFH-DA dye based assay; assay type: cell-based
[14] = target: T2, Pyruvate dehydrogenase kinase (Homo sapiens); assay: Inhibition of PDK in human NCI-H1975 cells assessed as switch of pyruvate metabolism from lactate production to oxidative phosphorylation by measuring increase in oxygen consumption rate measured after 2 hrs; assay type: cell-based
[15] = target: T2, Pyruvate dehydrogenase kinase (Homo sapiens); assay: Inhibition of PDK in human NCI-H1975 cells assessed as switch of pyruvate metabolism from lactate production to oxidative phosphorylation by measuring decrease in lactate production at 1 to 10 uM measured after 4 hrs; assay type: cell-based
NCI-H1975 [16] = assay: Antiproliferative activity against human NCI-H1975 cells assessed as reduction in cell viability at 20 mM after 72 hrs by MTT assay; assay type: functional, cell-based
[17] = target: T1, [Pyruvate dehydrogenase (acetyl-transferring)] kinase isozyme 1, mitochondrial; details: 10 mM
Description: Inhibition of PDK1 (unknown origin) at 10 mM using PDH E1 as substrate measured after 30 mins by kinase-glo assay relative to control

Chain of [Pyruvate dehydrogenase (acetyl-transferring)] kinase isozyme 3, mitochondrial (Q15120 whole entry, the tested form may be a part): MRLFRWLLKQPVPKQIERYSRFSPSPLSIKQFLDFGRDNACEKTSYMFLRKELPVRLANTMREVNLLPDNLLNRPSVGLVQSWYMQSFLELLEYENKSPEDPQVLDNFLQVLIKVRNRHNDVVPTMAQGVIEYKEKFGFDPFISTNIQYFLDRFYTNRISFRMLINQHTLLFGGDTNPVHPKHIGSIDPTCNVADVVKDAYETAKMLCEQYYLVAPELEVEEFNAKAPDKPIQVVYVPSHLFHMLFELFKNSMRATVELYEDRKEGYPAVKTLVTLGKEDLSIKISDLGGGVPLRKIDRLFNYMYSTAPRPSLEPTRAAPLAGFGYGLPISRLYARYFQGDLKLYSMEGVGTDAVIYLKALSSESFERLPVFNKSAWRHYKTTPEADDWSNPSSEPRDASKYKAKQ
T1 sequence (Q15118 whole entry): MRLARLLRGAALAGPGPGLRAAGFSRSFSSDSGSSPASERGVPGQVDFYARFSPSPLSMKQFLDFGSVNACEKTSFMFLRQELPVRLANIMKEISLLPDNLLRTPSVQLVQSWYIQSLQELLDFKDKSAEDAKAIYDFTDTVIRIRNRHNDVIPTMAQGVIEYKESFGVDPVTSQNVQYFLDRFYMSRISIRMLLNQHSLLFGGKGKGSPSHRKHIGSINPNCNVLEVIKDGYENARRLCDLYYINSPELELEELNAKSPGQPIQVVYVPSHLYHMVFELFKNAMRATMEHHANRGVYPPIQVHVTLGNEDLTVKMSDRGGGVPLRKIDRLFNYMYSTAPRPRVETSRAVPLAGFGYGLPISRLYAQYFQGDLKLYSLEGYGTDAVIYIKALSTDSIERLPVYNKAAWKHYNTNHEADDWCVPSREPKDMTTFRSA
Chain of [Pyruvate dehydrogenase (acetyl-transferring)] kinase isozyme 4, mitochondrial (Q16654 whole entry, the tested form may be a part): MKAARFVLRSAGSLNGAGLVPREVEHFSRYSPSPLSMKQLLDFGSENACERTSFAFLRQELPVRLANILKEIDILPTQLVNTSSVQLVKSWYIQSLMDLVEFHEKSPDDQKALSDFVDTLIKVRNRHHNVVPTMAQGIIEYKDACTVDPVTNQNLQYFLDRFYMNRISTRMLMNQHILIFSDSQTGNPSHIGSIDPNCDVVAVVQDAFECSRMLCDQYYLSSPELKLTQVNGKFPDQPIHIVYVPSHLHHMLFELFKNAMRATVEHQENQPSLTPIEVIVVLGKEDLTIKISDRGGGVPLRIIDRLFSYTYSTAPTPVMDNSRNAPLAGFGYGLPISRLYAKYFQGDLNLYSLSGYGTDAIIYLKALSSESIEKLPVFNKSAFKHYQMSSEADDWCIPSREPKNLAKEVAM

SMILES	inhibition [1] [%]	EC50 [2] [µM]	Ratio EC50 [3]	Kd [4] [µM]	Kd [5] [µM]	Kd [6] [µM]	Kd [7] [µM]	inhibition [8]	inhibition [9]	inhibition [10]	IC50 (A549) [µM]	IC50 (NCI-H1975 [12]) [µM]	inhibition [13]	inhibition [14]	inhibition [15]	Activity (NCI-H1975 [11])	Activity (MRC5)	IC50 (NCI-H1650) [µM]	Activity (NCI-H1975 [16])	inhibition [17] [%]
CN(Cc1cnc2ccccn12)C(=O)c1cc(COc2ccc3c(c2)OCO3)[nH]n1	95.6	0.5	> 1000	1.1	2	4.7	2.6	Active	Dose-dependent effect	Dose-dependent effect	17.8					Active	Non-Toxic	15.7		
O=C(c1ccccc1)C(Cl)Cl											4.7					Active		7.9		
O=C([O-])C(Cl)Cl.[Na+] [SODIUM DICHLOROACETATE]																		16300	Active	64.2

Second part, led by results:

inhibition [1] [%]	EC50 [2] [µM]	Ratio EC50 [3]	Kd [4] [µM]	Kd [5] [µM]	Kd [6] [µM]	Kd [7] [µM]	inhibition [8]	inhibition [9]	inhibition [10]	IC50 (A549) [µM]	IC50 (NCI-H1975 [12]) [µM]	inhibition [13]	inhibition [14]	inhibition [15]	SMILES	Activity (NCI-H1975 [11])	Activity (MRC5)	IC50 (NCI-H1650) [µM]	Activity (NCI-H1975 [16])	inhibition [17] [%]
89.6	1.99	> 1000	5.8	2.9	7.8	10.7	Active								CCCCN(Cc1ccncc1)C(=O)c1cc(-c2ccccc2O)n[nH]1					
86.9	4.64	> 1000	10.5	15.9	8.9		Active								CC(C)=CCN1CCN(Cc2c(C)n(C)n(-c3ccccc3)c2=O)C[C@@H]1CCO					
93.7	0.42	> 1000	0.89	3.7	2.1	7.9	Active	Dose-dependent effect	Dose-dependent effect	5.9	3.32	Active	Dose-dependent effect	Active	OCCn1nc(C2CCOCC2)nc1[C@@H]1CCCCN1Cc1ccccc1	Active	Non-Toxic	7.6		

Reference: ChEMBL document CHEMBL4308888, “Discovery of novel pyruvate dehydrogenase kinases inhibitors by screening of an in-house small molecule library for anti-lung cancer therapeutics” (Bioorg Med Chem Lett, 2019)
